Results on three compounds are retold here after paper PMC8741894 (2022).

Assay [1] concerns MN19 (DNA, aptamer) GACAAGGAAAATCCTTCAACGAAGTGGGTC
In words: UV melting, 260 nm. As to conditions: 137 mM NaCl, 2.7 mM KCl; PBS pH 7.4, 3% acetonitrile; Tm of complex, free MN19 shows no transition.

Assay [2] relates to MN4 (DNA, aptamer) GGCGACAAGGAAAATCCTTCAACGAAGTGGGTCGCC
In words: ITC competition. As to conditions: 140 mM NaCl, 5 mM KCl; 20 mM TRIS pH 7.4, 1% DMSO, 15 °C; apparent; ART pre-bound 3:1, competitive binding model.

The test system is the same in assay [3]. In words: ITC. As to conditions: 140 mM NaCl, 5 mM KCl, 15 °C.
Assay [4] concerns SS1 (DNA, junction) GGCGACGAGGAAAATCCTTCGACGAAGTAAGTCGCC
Description: ITC. As to conditions: 140 mM NaCl, 5 mM KCl; 20 mM TRIS pH 7.4, 2.4% DMSO, 15 °C; site 1 of 2.

The test system of assay [5] is MN19-SITS (DNA, aptamer) GACAAGGAAAATCCTTCAACGAAGTGGGTC
In words: photochrome aptamer switch assay (fluorescence decay). As to conditions: 140 mM NaCl; 20 mM Tris pH 7.4, 3% DMSO, 20 °C; 0-4.2 µM ART.

The test system of assay [6] is TWJ (DNA, junction) CGTGCAGCGGCTTGCCGGCACTTGTGCTTCTGCACG
Description: ITC. As to conditions: 140 mM NaCl, 5 mM KCl; 20 mM TRIS pH 7.4, 2.4% DMSO, 15 °C; site 1 of 2.

The subject of assay [7] is Hybrid DNA/RNA (DNA:RNA, duplex) GACACCUGAUUC/GAATCAGGTGTC
Description: ITC. As to conditions: 140 mM NaCl, 5 mM KCl; 20 mM TRIS pH 7.4, 2.4% DMSO, 15 °C; 20 µM nucleic acid, 0.312 mM titrant.

The test system of assay [8] is DDD (DNA, duplex) CGCGAATTCGCG/CGCGAATTCGCG
Description: ITC. As to conditions: 140 mM NaCl, 5 mM KCl; 20 mM TRIS pH 7.4, 2.4% DMSO, 15 °C; site 1 of 2.

The test system of assay [9] is SRE RNA (RNA, hairpin) GGAGGCUCUGGCAGCUUUC
Description: ITC. As to conditions: 140 mM NaCl, 5 mM KCl; 20 mM TRIS pH 7.4, 2.4% DMSO, 15 °C; 20 µM nucleic acid, 0.312 mM titrant.

Assay [10] deals with OR7 (DNA, aptamer) CAAGGAAAATCCTTCAACGAAGTGGG
In words: ITC. As to conditions: 140 mM NaCl, 5 mM KCl; 20 mM TRIS pH 7.4, 2.4% DMSO, 15 °C; site 1 of 2.

Assay [11] concerns MN4 (DNA, aptamer) GGCGACAAGGAAAATCCTTCAACGAAGTGGGTCGCC
In words: native mass spectrometry with CID. As to conditions: 300 mM ammonium acetate; pH 6.8; 10 µM aptamer, 100 µM ART; non-covalent.

Assay [12] concerns MN19 (DNA, aptamer) GACAAGGAAAATCCTTCAACGAAGTGGGTC
Description: ITC. As to conditions: 140 mM NaCl, 5 mM KCl; 20 mM TRIS pH 7.4, 2.4% DMSO, 15 °C; site 1 of 2.

Assay [13] has as its system MN4 (DNA, aptamer) GGCGACAAGGAAAATCCTTCAACGAAGTGGGTCGCC
Description: 1H NMR imino titration. As to conditions: sodium phosphate, no added NaCl; 20 mM phosphate pH 7.4, 5 °C; slow exchange, shifts near three-way junction.

In assay [14] the test system is Hexamer (DNA, duplex) CGTACG/CGTACG. Description: ITC. As to conditions: 140 mM NaCl, 5 mM KCl; 20 mM TRIS pH 7.4, 2.4% DMSO, 15 °C; site 1 of 2.
In assay [15] the test system is poly-dT (DNA, single strand) TTTTTTTTTTTT
Description: ITC. As to conditions: 140 mM NaCl, 5 mM KCl; 20 mM TRIS pH 7.4, 2.4% DMSO, 15 °C; 20 µM nucleic acid, 0.312 mM titrant.

In the case of `C=C[C@H]1CN2CC[C@H]1C[C@H]2[C@H](O)c1ccnc2ccc(OC)cc12`, the Tm in [1] worked out at 36.4 ± 1.2 °C. In addition, the “Kd, app” value in [2] stood at 1.1 ± 0.1 µM.
In the case of `C[C@@H]1CC[C@H]2[C@@H](C)C(=O)O[C@@H]3O[C@@]4(C)CC[C@@H]1[C@]32O4`, the binding entry in assay [3] (20 mM TRIS pH 7.4, 1.5% DMSO, 20 µM aptamer, 0.312 mM titrant) is reported as “no”.
Regarding `C[C@@H]1CC[C@H]2[C@@H](C)C(=O)O[C@@H]3O[C@@]4(C)CC[C@@H]1[C@]32OO4`, the Kd1 in assay [3] (20 mM TRIS pH 7.4, 2.4% DMSO, site 1 of 2) turned out to be 0.03 ± 0.01 µM; in [4] it was 0.004 ± 0.002 µM; in [6] it was 0.06 ± 0.02 µM; in [8], 0.10 ± 0.03 µM; in assay [10], 0.03 ± 0.01 µM; in [12], 0.02 ± 0.01 µM. The compound also displayed a Kd1 in [14] of 0.007 ± 0.004 µM. Moreover, the binding result in assay [5] is recorded as “yes”; in [7], “no”; in [9], “no”; in [11], “yes”; in assay [13] it was “yes”; in assay [15] it was “no”. Moreover, the Tm in assay [1] came out at 34.8 ± 1.1 °C.
